“And” between values parts separate entries of the source, which are not always exact repeats. Equal entries are not always repeated. Where two headings read alike, the source gives them in different places.
How the values were obtained:
[1] = system: Mitochondrial toxicity (Glu/Gal); experiment: Mitochondrial toxicity (Glu/Gal) assay; assay type: cell-based; design: key to Score: “negative” means that in the test, it was found to have low mitotoxicity (and hence no mitotoxicity alerts); “positive” means that there were some mitotoxicity alerts; “inconclusive” means that no accurate conclusion could be drawn; conditions: for Score: mitotoxicity score; for Δ IC50,glu/IC50,gal: ratio glu/gal
[2] = system: Mycobacterium tuberculosis (strain H37Ra), cyt bd; conditions: Mtb H37Ra; for (i) % OCR after cyt bd inhibitor: test compound 10 μM added after Compound X 0.9 μM; for (ii) % OCR after cccp: test compound 10 μM after Compound X 0.9 μM, then CCCP 1 μM
[3] = system: Mycobacterium tuberculosis strain H37Rv ΔctaE-ΔqcrCAB; experiment: microbe, parasite or virus in culture; assay type: cell-based; conditions: 240 h
[4] = system: M. tuberculosis (strain H37Rv and H37Ra); experiment: Time kill kinetics assay (Test 3); assay type: cell-based, Mycobacterium tuberculosis
Protocol: Time Kill Kinetics Assays: Test 3
Bactericidal or bacteriostatic activity of the compounds can be determined in a time kill kinetic assay using the broth dilution method. In this assay, the starting inoculum of M. tuberculosis (strain H37Rv and H37Ra) is 10^6 CFU/ml in Middlebrook (1×) 7H9 broth. The test compounds (cyt bd inhibitors) are tested in combination with a cyt bc inhibitor (for example Q203 or Compound X) at the concentration ranging from 10-30 μM to 0.9-0.3 μM respectively. Tubes receiving no antibacterial agent constitute the culture growth control. The tubes containing the microorganism and the test compounds are incubated at 37° C. After 0, 1, 4, 7, 14 and 21 days of incubation samples are removed for determination of viable counts by serial dilution (10^0 to 10^−6) in Middlebrook 7H9 medium and plating (100 μl) on Middlebrook 7H11 agar. The plates are incubated at 37° C. for 21 days and the number of colonies are determined. Killing curves can be constructed by plotting the log10 CFU per ml versus time. A bactericidal effect of a cytochrome be and cytochrome bd inhibitor (either alone or in combination) is commonly defined as 2-log10 decrease (decrease in CFU per ml) compared to Day 0. The potential carryover effect of the drugs is limited by using 0.4% charcoal in the agar plates, and by serial dilutions and counting the colonies at highest dilution possible used for plating.
Compounds of the examples are/were tested in Test 3 (the kill kinetics) described above, obtaining results expressed as a log reduction in CFUs per ml as compared to Day 0.

[5] = molecular target: hERG (Homo sapiens, UniProt Q12809); experiment: CVS / cardio tox hERG (DOF); assay type: binding; conditions: CVS; read-out: hERG IC50
[6] = system: h-cardiomyocytes; experiment: CTCM Ca2+ transient h-cardiomyocytes HTS; conditions: 0.1 μm, 0.2 μm, 0.5 μm, 1 μm, 2.5 μm, 5 μm
[7] = PK parameters in mice
[8] = AMES II b (+/−rat S9)
[9] = system: rCaCh; experiment: CVS / cardio tox rCaCh; assay type: binding, rat; conditions: CVS
[10] = system: rNaCh; experiment: CVS / cardio tox rNaCh; assay type: binding, rat; conditions: CVS; read-out: rNaCh IC50
[11] = GSH and CN adducts (reactive metabolite formation)
[12] = galactose medium, read-out: IC50, gal
[13] = glucose medium, read-out: IC50, glu
[14] = compound alone 12 μg/ml, Log Day 0 5.56 (Q203 experiment)
[15] = compound alone 12 μg/ml, Log Day 0 6.66
[16] = Q203 alone 0.168 μg/ml, Log Day 0 5.56
[17] = Compound X alone 0.17 μg/ml, Log Day 0 6.66

hERG, sequence (Q12809 whole entry): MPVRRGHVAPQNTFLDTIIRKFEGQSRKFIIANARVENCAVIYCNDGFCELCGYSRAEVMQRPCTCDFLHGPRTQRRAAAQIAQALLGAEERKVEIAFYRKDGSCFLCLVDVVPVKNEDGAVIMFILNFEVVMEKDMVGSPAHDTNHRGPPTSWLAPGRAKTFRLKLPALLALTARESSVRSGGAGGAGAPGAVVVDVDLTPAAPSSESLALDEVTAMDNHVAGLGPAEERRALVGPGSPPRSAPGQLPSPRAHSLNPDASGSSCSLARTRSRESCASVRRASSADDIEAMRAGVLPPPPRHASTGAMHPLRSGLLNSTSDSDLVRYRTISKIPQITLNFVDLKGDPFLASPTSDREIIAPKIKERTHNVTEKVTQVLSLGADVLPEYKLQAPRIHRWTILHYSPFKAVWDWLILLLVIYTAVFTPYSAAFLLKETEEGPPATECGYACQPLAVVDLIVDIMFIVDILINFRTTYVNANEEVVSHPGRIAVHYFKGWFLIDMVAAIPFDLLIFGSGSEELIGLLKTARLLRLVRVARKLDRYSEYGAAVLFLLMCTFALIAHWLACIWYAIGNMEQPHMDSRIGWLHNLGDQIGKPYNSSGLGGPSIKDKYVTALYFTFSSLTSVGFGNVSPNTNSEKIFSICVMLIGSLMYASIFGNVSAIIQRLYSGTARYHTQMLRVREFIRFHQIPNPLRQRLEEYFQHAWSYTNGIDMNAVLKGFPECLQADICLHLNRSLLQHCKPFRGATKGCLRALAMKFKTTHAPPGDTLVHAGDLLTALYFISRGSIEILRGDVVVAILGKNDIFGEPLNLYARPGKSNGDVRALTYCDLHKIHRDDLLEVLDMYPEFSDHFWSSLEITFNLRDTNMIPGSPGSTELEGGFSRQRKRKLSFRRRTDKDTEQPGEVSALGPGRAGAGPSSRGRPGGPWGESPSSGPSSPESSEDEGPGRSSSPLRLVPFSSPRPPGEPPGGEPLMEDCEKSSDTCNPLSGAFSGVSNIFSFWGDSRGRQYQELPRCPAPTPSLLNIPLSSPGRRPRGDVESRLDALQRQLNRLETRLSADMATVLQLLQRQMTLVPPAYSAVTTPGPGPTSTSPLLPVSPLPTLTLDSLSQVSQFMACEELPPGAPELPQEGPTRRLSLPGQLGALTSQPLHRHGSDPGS

Cc1c(-c2nc3cc(-c4ccc(OC(F)(F)F)cc4)ccn3n2)[nH]c2ccccc2c1=O [Compound 2]
IC50 [1, 12]: 100 µM
IC50 [1, 13]: 100 µM
Score [1]: negative
Δ IC50,glu/IC50,gal [1]: [x]0
(i) % OCR after cyt bd inhibitor [2]: 24.8%
(ii) % OCR after cccp [2]: 38.3%
IC50 [3]: 1.33 µM
Log Day 21 [4, 14]: 8.69 log CFUs per ml
Log Day 21-Log Day 0 [4, 14]: +3.13 log CFUs per ml

Cc1c(-c2nc3ccc(-c4ccc(OC(F)(F)F)cc4)cn3n2)[nH]c2ccccc2c1=O [Compound 6]
IC50 [5]: > 10 µM
CTCM Ca2+ transient h-cardiomyocytes HTS [6]: all no
CI ([7]; mice): 0.101 L/h/kg
Fab % ([7]; mice): 64%
half-life ([7]; mouse, in vivo): 5.6 h
IC50 [1, 12]: 21.9 µM and 22.1 µM
IC50 [1, 13]: 15.6 µM and 26.5 µM
Score [1]: negative
Δ IC50,glu/IC50,gal [1]: 1.2
Δ IC50,glu/IC50,gal ([1]; listed as 6 (repeat)): 1.4
AMES II b (+/−rat S9) [8]: negative
IC50 [9]: > 10 µM
(i) % OCR after cyt bd inhibitor [2]: 39.7%
(ii) % OCR after cccp [2]: 58.4%
IC50 [10]: > 10 µM
IC50 [3]: 0.653 µM
GSH and CN adducts [11]: negative
Log Day 21 [4, 14]: 8.64 log CFUs per ml
Log Day 21-Log Day 0 [4, 14]: +3.08 log CFUs per ml
Log Day 21 [4, 15]: 9.06 log CFUs per ml
Log Day 21-Log Day 0 [4, 15]: +2.40 log CFUs per ml

Cc1c(-c2nc3ccc(-c4cccc(OC(F)(F)F)c4)cn3n2)[nH]c2ccccc2c1=O [Compound 7]
IC50 [1, 12]: 20 µM
IC50 [1, 13]: 20 µM
Score [1]: negative
Δ IC50,glu/IC50,gal [1]: [x]0
(i) % OCR after cyt bd inhibitor [2]: 36.5%
(ii) % OCR after cccp [2]: 54.6%
IC50 [3]: 1.41 µM
Log Day 21 [4, 15]: 9.13 log CFUs per ml
Log Day 21-Log Day 0 [4, 15]: +2.47 log CFUs per ml

CCc1nc2ccc(Cl)cn2c1C(=O)NCc1ccc(N2CCC(c3ccc(OC(F)(F)F)cc3)CC2)cc1 [Compound Q203, 6-chloro-2-ethyl-N-(4-(4-(4-(trifluoromethoxy)phenyl)piperidin-1-yl)benzyl)imidazo[1,2-a]pyridine-3-carboxamide, reference compound]
Log Day 21 [4, 16]: 2.59 log CFUs per ml
Log Day 21-Log Day 0 [4, 16]: −2.97 log CFUs per ml

CCc1nc2ccc(Cl)cn2c1C(=O)NCc1ccc(C2CC3(C2)CN(S(=O)(=O)C(F)(F)F)C3)cc1 [Compound X, 6-chloro-2-ethyl -N-({4-[2-(trifluoromethanesulfonyl)-2-azaspiro[3.3]heptan-6-yl]phenyl}methyl)imidazo[1,2-a]pyridine-3-carboxamide, reference compound]
Log Day 21 [4, 17]: 5.93 log CFUs per ml
Log Day 21-Log Day 0 [4, 17]: −0.73 log CFUs per ml

Reference: patent US20220389008A1, “4-QUINOLINONE ANTIBACTERIAL COMPOUNDS” (Janssen Sciences Ireland Unlimited Company, priority 2019, published 2022)
